In PubChem BioAssay (NCI):
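96-well plates; 48 h exposure; 5 concentrations. Endpoints by linear interpolation between flanking doses. Not reached: highest tested concentration assigned. GI50 = concentration required for 50% inhibition of growth. TGI marks complete inhibition of growth.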

Legend:
Experiment in all cases: DTP human tumour cell line panel, 48 h
CAKI-1 renal = test system: CAKI-1 renal
HCT-116 colon = test system: HCT-116 colon
HOP-62 NSCLC = test system: HOP-62 NSCLC
K-562 leukemia = test system: K-562 leukemia
MALME-3M melanoma = test system: MALME-3M melanoma
OVCAR-4 ovarian = test system: OVCAR-4 ovarian
OVCAR-5 ovarian = test system: OVCAR-5 ovarian
SK-MEL-28 melanoma = test system: SK-MEL-28 melanoma
U251 CNS = test system: U251 CNS
UACC-257 melanoma = test system: UACC-257 melanoma

SMILES | TGI (CAKI-1 renal) [µM] | TGI (HCT-116 colon) [µM] | TGI (HOP-62 NSCLC) [µM] | TGI (K-562 leukemia) [µM] | TGI (MALME-3M melanoma) [µM] | TGI (OVCAR-4 ovarian) [µM] | TGI (OVCAR-5 ovarian) [µM] | TGI (SK-MEL-28 melanoma) [µM] | TGI (U251 CNS) [µM] | TGI (UACC-257 melanoma) [µM] | GI50 (CAKI-1 renal) [µM] | GI50 (HCT-116 colon) [µM] | GI50 (HOP-62 NSCLC) [µM] | GI50 (K-562 leukemia) [µM] | GI50 (MALME-3M melanoma) [µM] | GI50 (OVCAR-4 ovarian) [µM] | GI50 (OVCAR-5 ovarian) [µM] | GI50 (SK-MEL-28 melanoma) [µM] | GI50 (U251 CNS) [µM] | GI50 (UACC-257 melanoma) [µM]
COc1cc2cccc(NC(=O)c3cc(OC)c(OC)c(OC)c3Br)c2cc1OC | 64.6 | 36.6 | 42.3 | 46.6 | 49.8 | 34.3 | 51.9 | 41.8 | 78.9 | 16.7 |  |  |  |  |  |  |  |  |  | 
CC1(C)C2C/C(=C\c3ccccc3)C(=O)C1C2 (stereo not given) | > 100 | > 100 | > 100 | > 100 | > 100 | > 100 | > 100 | > 100 | > 100 | > 100 |  |  |  |  |  |  |  |  |  | 
C=CC(=O)Nc1cccc(C)c1Nc1ncc2cc(-c3c(Cl)c(OC)cc(OC)c3Cl)ccc2n1 | > 100 | 24.9 | 50 | > 100 | 31.4 | > 100 | > 100 | 55.6 | 16.5 | 68.3 | 8.39 | 6.36 | 8.86 | 3.89 | 3.98 | 3.47 | 17.9 | 12.7 | 2.3 | 3.43
C=C(C)[C@H](O)C(O)CC(C)[C@@H]1CCC23CC12CCC1[C@@]2(C)CCC(OC(C)=O)C(C)(C)C2CC(OC2OC(COC(C)=O)C(O)C(O)C2O)[C@]13C (stereo not given in full) | 12.1 | 9.27 | 13.2 | 10.8 | 14.7 | 14 | 13.9 | 13.3 | 10.1 | 12 |  |  |  |  |  |  |  |  |  | 
C=C1CC[C@@H]2[C@](C)(COC(C)=O)[C@H](OC(C)=O)CC[C@@]2(C)[C@@H]1C/C=C1/C(=O)OC[C@H]1OC(C)=O | 19.6 | 2.98 | 21.4 | 32.1 | 7.95 | 15.4 | 3.92 | 3.38 | 19.3 | 19.9 | 6.67 | 1.45 | 4.4 | 2.63 | 2.98 | 3.57 | 1.93 | 1.75 | 6.09 | 6.2
CN(C)CCNC(=O)c1cc2c3ccccc3[nH]c2c2ncccc12 | 12.3 | 25.3 | 37.5 | 26.2 | 26.5 | 47.7 | 68.3 | 29.9 | 37 | 88.1 | 0.515 | 3.95 | 11.1 | 9.05 | 10.7 | 8.48 | 20.6 | 15.3 | 12.2 | 10.4
